Assay results published in DBAASP.
≈ marks a conversion by molar mass, not a printed value.

Key:
Test in all cases: ≥ marks a high value that may be exact or a test limit, other limits are often not marked, values filed in µg/mL are converted to µM
[1] = system: Escherichia coli ATCC 25922
[2] = system: Staphylococcus aureus ATCC 29213
[3] = system: Pseudomonas aeruginosa ATCC 27853
[4] = system: Staphylococcus aureus ATCC 25923
Escherichia coli = system: Escherichia coli

Row | MIC [1] | MIC [4] | Structure (SMILES) | further results
1 | 11.3 µM (≈ 21.7 µg/mL) | – | CC(C)[C@H](NC(=O)[C@@H]1CCCN1C(=O)[C@@H](N)Cc1ccccc1)C(=O)N[C@H](C(=O)N[C@@H](Cc1c[nH]c2ccccc12)C(=O)N[C@@H](CCCN=C(N)N)C(=O)N[C@@H](Cc1c[nH]c2ccccc12)C(=O)N[C@@H](Cc1c[nH]c2ccccc12)C(=O)N[C@@H](CCCN=C(N)N)C(=O)N[C@@H](Cc1c[nH]c2ccccc12)C(=O)N[C@@H](Cc1c[nH]c2ccccc12)C(=O)N[C@@H](CCCN=C(N)N)C(=O)NCC(N)=O)[C@@H](C)O [FPVTWRWWRWWRG] | –
2 | > 128 µM | – | CC(C)C[C@H](NC(=O)[C@H](Cc1ccccc1)NC(=O)[C@@H]1CCCN1C(=O)[C@H](C)NC(=O)[C@H](C)NC(=O)[C@H](C)NC(=O)[C@@H]1CCCN1C(=O)[C@H](Cc1ccccc1)NC(=O)[C@H](CCCN=C(N)N)NC(=O)[C@H](CCCN=C(N)N)NC(=O)[C@@H](N)C(C)C)C(=O)N[C@@H](CCCN=C(N)N)C(=O)N[C@@H](CCCN=C(N)N)C(N)=O [VRRFPAAAPFLRR] | –
3 | 5 µM (≈ 9.18 µg/mL) | – | CC(C)C[C@H](NC(=O)[C@H](CCCCN)NC(=O)[C@H](CC(C)C)NC(=O)[C@H](CC(C)C)NC(=O)[C@H](CCCCN)NC(=O)[C@H](CCCCN)NC(=O)[C@H](CCC(=O)O)NC(=O)[C@H](CC(C)C)NC(=O)[C@H](CCCCN)NC(=O)[C@H](CC(C)C)NC(=O)[C@H](CC(C)C)NC(=O)[C@H](CCCCN)NC(=O)[C@H](CCCCN)NC(=O)[C@@H](N)CC(C)C)C(=O)N[C@@H](C)C(=O)NCC(=O)O [LKKLLKLEKKLLKLAG] | MIC [2]: > 40 µM
4 | 12.5 µM (≈ 27.9 µg/mL) | – | CC[C@H](C)[C@H](NC(=O)[C@H](C)NC(=O)CNC(=O)[C@H](C)NC(=O)[C@H](CCCCN)NC(=O)[C@H](CO)NC(=O)[C@H](C)NC(=O)[C@H](CCSC)NC(=O)CN)C(=O)N[C@@H](C)C(=O)NCC(=O)N[C@@H](CCCCN)C(=O)N[C@H](C(=O)N[C@@H](C)C(=O)N[C@@H](CCCCN)C(=O)N[C@H](C(=O)N[C@@H](C)C(=O)N[C@@H](Cc1c[nH]c2ccccc12)C(=O)N[C@@H](CCCCN)C(=O)N[C@@H](C)C(=O)N[C@@H](CC(C)C)C(=O)NCC(=O)NCC(=O)N[C@@H](C)C(N)=O)C(C)C)[C@@H](C)CC [GMASKAGAIAGKIAKVAWKALGGA] | –
5 | 19 µM (≈ 20 µg/mL) | 9.5 µM (≈ 9.99 µg/mL) | NC(=O)[C@H](Cc1c[nH]c2ccccc12)NC(=O)[C@H](CCCN=C(N)N)NC(=O)[C@H](Cc1c[nH]c2ccccc12)NC(=O)[C@H](CCCN=C(N)N)NC(=O)[C@H](Cc1c[nH]c2ccccc12)NC(=O)[C@@H](N)Cc1ccc(O)cc1 [YWRWRW] | MIC [3]: 47.5 µM (≈ 50 µg/mL)
6 | 2.73 µM (≈ 3 µg/mL) | 2.73 µM (≈ 3 µg/mL) | CC[C@H](C)[C@H](NC(=O)[C@@H](NC(=O)[C@H](CCCCN)NC(=O)[C@H](CC(C)C)NC(=O)[C@H](CC(C)C)NC(=O)CN)C(C)C)C(=O)N[C@@H](CCCCN)C(=O)N[C@H](C(=O)N[C@@H](CC(C)C)C(=O)N[C@@H](CC(C)C)C(N)=O)[C@@H](C)O [GLLKVIKTLL] | –
7 | 5 µM (≈ 8.51 µg/mL) | – | CC(=O)N[C@@H](CC(C)C)C(=O)N[C@@H](CCCCN)C(=O)N[C@@H](CCCCN)C(=O)N[C@@H](CC(C)C)C(=O)N[C@@H](CC(C)C)C(=O)N[C@@H](CCCCN)C(=O)N[C@@H](CC(C)C)C(=O)N[C@@H](CC(C)C)C(=O)N[C@@H](CCCCN)C(=O)N1CCC[C@H]1C(=O)N[C@@H](CC(C)C)C(=O)N[C@@H](CC(C)C)C(=O)N[C@@H](CCCCN)C(=O)N[C@@H](CC(C)C)C(N)=O [LKKLLKLLKPLLKL] | MIC [2]: 2.5 µM (≈ 4.26 µg/mL)
8 | 12.4 µM (≈ 20 µg/mL) | 12.4 µM (≈ 20 µg/mL) | C[C@H](NC(=O)[C@H](Cc1c[nH]c2ccccc12)NC(=O)[C@H](CCCN=C(N)N)NC(=O)[C@H](CCCN=C(N)N)NC(=O)[C@H](C)NC(=O)[C@H](CCCCN)NC(=O)[C@@H](N)Cc1ccc(O)cc1)C(=O)N[C@@H](Cc1c[nH]c2ccccc12)C(=O)N[C@@H](CCCN=C(N)N)C(=O)N[C@@H](Cc1c[nH]c2ccccc12)C(=O)N[C@@H](CCCCN)C(=O)O [YKARRWAWRWK] | MIC [3]: 31.1 µM (≈ 50 µg/mL)
9 | 11.1 µM (≈ 13 µg/mL) | 6 µM (≈ 6.99 µg/mL) | CC[C@H](C)[C@H](NC(=O)[C@H](CCCN=C(N)N)NC(=O)[C@H](CCCCN)NC(=O)[C@H](CC(C)C)NC(=O)[C@H](CC(C)C)NC(=O)CN)C(=O)N[C@@H](CCCCN)C(=O)N[C@@H](CC(C)C)C(=O)N[C@@H](CC(C)C)C(=O)N[C@@H](CC(C)C)C(N)=O [GLLKRIKLLL] | –
10 | 3 µM (≈ 5.83 µg/mL) | – | CC(C)C[C@H](NC(=O)[C@H](C)NC(=O)[C@H](CCCCN)NC(=O)[C@H](C)NC(=O)[C@H](C)NC(=O)CNC(=O)[C@H](CCCCN)NC(=O)[C@H](CC(C)C)NC(=O)[C@H](CC(C)C)NC(=O)[C@H](CC(=O)O)NC(=O)[C@H](CCCCN)NC(=O)[C@H](Cc1c[nH]c2ccccc12)NC(=O)CN)C(=O)N[C@H](C(=O)N[C@@H](CCCCN)C(=O)N[C@H](C(=O)N[C@H](C(=O)N[C@@H](Cc1ccccc1)C(N)=O)C(C)C)[C@@H](C)O)C(C)C [GWKDLLKGAAKALVKTVF] | –
11 | 2.5 µM (≈ 4.49 µg/mL) | – | CC(C)C[C@H](NC(=O)[C@H](CCCCN)NC(=O)[C@H](CC(C)C)NC(=O)[C@H](CC(C)C)NC(=O)[C@H](CCCCN)NC(=O)[C@H](CCCCN)NC(=O)[C@H](CO)NC(=O)[C@H](CC(C)C)NC(=O)[C@H](CCCCN)NC(=O)[C@H](CC(C)C)NC(=O)[C@H](CC(C)C)NC(=O)[C@H](CCCCN)NC(=O)[C@H](CCCCN)NC(=O)[C@@H](N)CC(C)C)C(=O)N[C@@H](C)C(=O)NCC(=O)O [LKKLLKLSKKLLKLAG] | MIC [2]: 10 µM (≈ 17.9 µg/mL)
12 | 5.91 µM (≈ 9.99 µg/mL) | 1.48 µM (≈ 2.5 µg/mL) | C[C@H](NC(=O)[C@H](Cc1c[nH]c2ccccc12)NC(=O)[C@H](CCCN=C(N)N)NC(=O)[C@H](Cc1c[nH]c2ccccc12)NC(=O)[C@H](C)NC(=O)[C@H](CCCN=C(N)N)NC(=O)[C@@H](N)Cc1ccc(O)cc1)C(=O)N[C@@H](Cc1c[nH]c2ccccc12)C(=O)N[C@@H](CCCN=C(N)N)C(=O)N[C@@H](Cc1c[nH]c2ccccc12)C(=O)N[C@@H](CCCN=C(N)N)C(N)=O [YRAWRWAWRWR] | MIC [3]: 11.8 µM (≈ 20 µg/mL)
13 | 28 µM (≈ 79.7 µg/mL) | – | CC[C@H](C)[C@H](NC(=O)CNC(=O)[C@H](CCSC)NC(=O)[C@H](CCCCN)NC(=O)[C@H](C)NC(=O)[C@H](CC(C)C)NC(=O)[C@H](CCCCN)NC(=O)[C@H](CCC(=O)O)NC(=O)[C@H](CC(C)C)NC(=O)CNC(=O)[C@H](CCCCN)NC(=O)[C@H](CC(C)C)NC(=O)[C@@H](NC(=O)[C@H](CO)NC(=O)[C@H](CC(C)C)NC(=O)[C@H](C)N)[C@@H](C)CC)C(=O)N[C@@H](C)C(=O)N[C@@H](CC(C)C)C(=O)N[C@H](C(=O)N[C@@H](CC(N)=O)C(=O)N[C@H]1CSSC[C@@H](C(=O)O)NC(=O)[C@H](CCCCN)NC(=O)[C@H](CCCCN)NC(=O)[C@H]([C@@H](C)O)NC(=O)[C@H](C)NC(=O)[C@H](CCCCN)NC1=O)[C@@H](C)O [ALSILKGLEKLAKMGIALTNCKATKKC] | –
14 | 18.8 µM (≈ 22 µg/mL) | 10.3 µM (≈ 12 µg/mL) | CC[C@H](C)[C@H](NC(=O)[C@H](CCCN=C(N)N)NC(=O)[C@H](CCCCN)NC(=O)[C@H](CC(C)C)NC(=O)[C@H](CC(C)C)NC(=O)CN)C(=O)N[C@@H](CCCCN)C(=O)N[C@@H](CC(N)=O)C(=O)N[C@@H](CC(C)C)C(=O)N[C@@H](CC(C)C)C(N)=O [GLLKRIKNLL] | –
15 | – | – | CC[C@H](C)[C@H](NC(=O)[C@@H]1CCCN1C(=O)[C@H](CCCCN)NC(=O)[C@H](CC(C)C)NC(=O)[C@H](C)NC(=O)[C@@H](NC(=O)[C@@H](NC(=O)[C@H](CC(C)C)NC(=O)[C@@H](NC(=O)[C@H](CCCCN)NC(=O)[C@H](CCCCN)NC(=O)[C@H](C)NC(=O)[C@H](C)NC(=O)[C@H](CO)NC(=O)[C@@H](NC(=O)[C@H](CC(C)C)NC(=O)[C@H](CCCCN)NC(=O)[C@H](CCCCN)NC(=O)[C@H](CC(C)C)NC(=O)[C@H](Cc1ccccc1)NC(=O)[C@H](CCCCN)NC(=O)[C@H](CCCCN)NC(=O)[C@H](Cc1c[nH]c2ccccc12)NC(=O)[C@@H](N)CCCCN)[C@@H](C)O)C(C)C)[C@@H](C)O)[C@@H](C)O)C(=O)N[C@@H](CO)C(=O)N[C@@H](CO)C(=O)O [KWKKFLKKLTSAAKKVLTTALKPISS] | MIC [3]: 2 µM (≈ 5.83 µg/mL)
16 | 25 µM (≈ 57.3 µg/mL) | 200 µM (≈ 459 µg/mL) | CC[C@H](C)[C@H](NC(=O)CNC(=O)[C@H](CCCCN)NC(=O)[C@@H](NC(=O)[C@H](CC(C)C)NC(=O)[C@H](CO)NC(=O)CNC(=O)[C@H](CC(C)C)NC(=O)CNC(=O)[C@H](C)NC(=O)[C@H](CCCCN)NC(=O)[C@H](Cc1ccccc1)NC(=O)[C@@H](NC(=O)[C@H](CCC(=O)O)NC(=O)[C@H](CCCCN)NC(=O)[C@H](CC(C)C)NC(=O)CN)[C@@H](C)CC)C(C)C)C(=O)N[C@@H](C)C(=O)N[C@@H](C)C(=O)N[C@@H](Cc1cnc[nH]1)C(=O)N[C@H](C(=O)N[C@@H](C)C(=O)N[C@@H](CC(N)=O)C(N)=O)C(C)C [GLKEIFKAGLGSLVKGIAAHVAN] | –
17 | > 54.4 µM | > 54.4 µM | CC[C@H](C)[C@H](NC(=O)[C@H](CCCN=C(N)N)NC(=O)[C@H](CCCCN)NC(=O)[C@H](CC(C)C)NC(=O)[C@H](CC(C)C)NC(=O)CN)C(N)=O [GLLKRI] | –
18 | – | – | CC(C)C[C@H](NC(=O)[C@H](CCCN=C(N)N)NC(=O)CNC(=O)CNC(=O)[C@@H](N)CCCN=C(N)N)C(=O)N[C@H]1CSSC[C@@H](C(=O)N[C@@H](CCC(=O)O)C(=O)O)NC(=O)[C@H](C(C)C)NC(=O)[C@@H]2CSSC[C@H](NC(=O)[C@H](Cc3ccc(O)cc3)NC1=O)C(=O)N[C@@H](CCCN=C(N)N)C(=O)N[C@@H](CCCN=C(N)N)C(=O)N[C@@H](CCCN=C(N)N)C(=O)N[C@@H](Cc1ccccc1)C(=O)N2 [RGGRLCYCRRRFCVCE] | MIC (Escherichia coli): 0.303 µM (≈ 0.599 µg/mL)
19 | 16 µM (≈ 29.7 µg/mL) | – | CC(C)C[C@H](NC(=O)[C@H](Cc1ccccc1)NC(=O)[C@@H]1CCCN1C(=O)[C@H](Cc1ccc(O)cc1)NC(=O)[C@H](Cc1c[nH]c2ccccc12)NC(=O)[C@H](Cc1ccc(O)cc1)NC(=O)[C@@H]1CCCN1C(=O)[C@H](Cc1ccccc1)NC(=O)[C@H](CCCN=C(N)N)NC(=O)[C@H](CCCN=C(N)N)NC(=O)[C@@H](N)C(C)C)C(=O)N[C@@H](CCCN=C(N)N)C(=O)N[C@@H](CCCN=C(N)N)C(N)=O [VRRFPYWYPFLRR] | –
